≈ marks a conversion by molar mass, not a printed value.
Assays:
[1] = Solubility of Compound 1 in oils, surfactants and co-surfactants; format: physicochemical
Procedure: Based on the initial screening as shown in Table 1 and based on limits of excipients allowed by FDA, the solubility of Compound 1 in the oils in Table 1A were measured. Based on the solubility data, Labrafac WL 1349 was further pursued.
A total of 36 different excipients including pharmaceutically acceptable oils, surfactants and co-surfactants were evaluated for Compound 1. Higher solubility of Compound 1 in oils is desirable to increase drug loading.

[2] = Physical stability on storage (microscope / polarized microscope); format: physicochemical; conditions: 25° C./60% RH and 5° C.
Procedure: Certain combinations of Gelucire 44/14 with Solutol HS15, TPGS and Tween 80 were screened as shown in Table 2 at 200 mg/g concentration of Compound 1. Physical stability was observed microscopically at week one at 25° C./60% RH and at 5° C. Bioperformance was assessed visual observation after 10× dilution in FaSSIF. Based on the crash resistance test performed with ten times dilution with FaSSIF, the most promising formulation combination for Gelucire 44/14 appeared to be 80% w/w Gelucire 44/14, 10% w/w TPGS and 10% w/w Tween 80.
In the above table and in this paragraph, the % w/w are based on the total weight of the vehicle without compound. The 80% w/w Gelucire 44/14, 10% w/w TPGS and 10% w/w Tween 80 formulation vehicles were further tested at lower Compound 1 concentrations of 150 mg/g (i.e. 150 mg of Compound 1 in 1 g of Compound 1+vehicle) and 100 mg/g (i.e. 100 mg of Compound 1 in 1 g of Compound 1+vehicle) to minimize the crystallization risk upon storage. Physical stability was observed microscopically at week one at 25° C./60% RH and at 5° C. Bioperformance was assessed visual observation after 10× dilution in FaSSIF.
Physical stability evaluation of both Gelucire 44/14-based and Labrafac-WL-1349-based formulation vehicles was done under polarized microscope. […] Therefore, Labrafac-WL-1349-based formulation was physically stable upon storage.

Solubility of Compound 1 ([1]; in Soybean oil, RT): <150 mg/g
solubility ([1]; oil or lipid, in Capryol 90, RT): 125 mg/mL (≈ 451 mM)
solubility ([1]; oil or lipid, in Capryol PGMC, RT): 184 mg/mL (≈ 665 mM)
solubility ([1]; oil or lipid, in Corn Oil, RT): 115 mg/mL (≈ 417 mM)
solubility ([1]; oil or lipid, in Cottonseed Oil, RT): 112 mg/mL (≈ 404 mM)
solubility ([1]; oil or lipid, in Labrafac Lipo WL1349, RT): 141 mg/mL (≈ 510 mM)
solubility ([1]; oil or lipid, in Labrafac PG, RT): 222 mg/mL (≈ 803 mM)
solubility ([1]; oil or lipid, in Labrafil M1944CS, RT): 101 mg/mL (≈ 364 mM)
solubility ([1]; oil or lipid, in Labrafil M2125CS, RT): 119 mg/mL (≈ 429 mM)
solubility ([1]; oil or lipid, in Lauroglycol 90, RT): 133 mg/mL (≈ 483 mM)
solubility ([1]; oil or lipid, in Lauroglycol FCC, RT): 160 mg/mL (≈ 578 mM)
solubility ([1]; oil or lipid, in Maisine CC, RT): 90.3 mg/mL (≈ 327 mM)
solubility ([1]; oil or lipid, in Olive oil, RT): 135 mg/mL (≈ 488 mM)
solubility ([1]; oil or lipid, in Plurol oleique CC 497): 50 to 100 mg/mL (≈ 181 to 362 mM)
solubility ([1]; oil or lipid, in Sesame oil, RT): 139 mg/mL (≈ 503 mM)
solubility ([1]; oil or lipid, in Soybean Oil, RT): 111 mg/mL (≈ 400 mM)
solubility ([1]; organic solvent or mixture, in Gelucire 44/14, 45° C.): 269 mg/mL (≈ 973 mM)
solubility ([1]; organic solvent or mixture, in Labrasol, RT): 35.7 mg/mL (≈ 129 mM)
solubility ([1]; organic solvent or mixture, in PEG400, 37° C.): 11 mg/mL (≈ 39.8 mM)
solubility ([1]; organic solvent or mixture, in Solutol HS15, 37° C.): 94 mg/mL (≈ 340 mM)
solubility ([1]; organic solvent or mixture, in TPGS, 45° C.): 195 mg/mL (≈ 705 mM)
solubility ([1]; organic solvent or mixture, in Triethyl citrate, RT): 30.1 mg/mL (≈ 109 mM)
solubility ([1]; organic solvent or mixture, in Tween 60): 50 to 100 mg/mL (≈ 181 to 362 mM)
solubility ([1]; organic solvent or mixture, in Tween 80): 25 to 50 mg/mL (≈ 90.4 to 181 mM)
Physical stability ([2]; 150 mg/g in vehicle 80% Gelucire 44/14, 10% TPGS, 10% Tween 80, week one): Crystallization observed
Physical stability ([2]; 200 mg/g in vehicle 70% Gelucire 44/14, 10% TPGS, 20% Tween 80, week one): Crystallization
Physical stability ([2]; 200 mg/g in vehicle 80% Gelucire 44/14, 10% TPGS, 10% Tween 80, week one): Crystallization
Physical stability ([2]; 200 mg/g in vehicle 80% Gelucire 44/14, 20% Tween 80, week one): Crystallization
Physical stability ([2]; 200 mg/g in vehicle 85% Gelucire 44/14, 5% Solutol HS15, 5% TPGS, 5% Tween 80, week one): Crystallization
Physical stability ([2]; 200 mg/g in vehicle 90% Gelucire 44/14, 10% TPGS, week one): Crystallization
Physical stability ([2]; 200 mg/g in vehicle 90% Gelucire 44/14, 10% Tween 80, week one): Crystallization
Structure (SMILES): CCCCCCCCCC1=C(C)C(=O)C(C)=C(C)C1=O [Compound 1, 2,3,5-trimethyl-6-nonylcyclohexa-2,5-diene-1,4-dione]
